PubChem BioAssay AID1259407 (Chemical Carcinogenesis Research Information System (CCRIS), 2018)
The source made the active and inactive calls. No rule for the calls is given here.

System: CCRIS mutagenicity, Ames/micronucleus/aberration tests
Assay: CCRIS mutagenicity studies
[1] = Test System: AMES SALMONELLA TYPHIMURIUM, Strain/Indicator: TA98, Metabolic Activation: HAMSTER, LIVER, S-9, AROCLOR 1254 (10%), Method: PREINCUBATION
[2] = Test System: AMES SALMONELLA TYPHIMURIUM, Strain/Indicator: TA98, Metabolic Activation: NONE, Method: PREINCUBATION
[3] = Test System: AMES SALMONELLA TYPHIMURIUM, Strain/Indicator: TA98, Metabolic Activation: RAT, LIVER, S-9, AROCLOR 1254 (10%), Method: PREINCUBATION
[4] = Test System: AMES SALMONELLA TYPHIMURIUM, Strain/Indicator: TA100, Metabolic Activation: HAMSTER, LIVER, S-9, AROCLOR 1254 (10%), Method: PREINCUBATION
[5] = Test System: AMES SALMONELLA TYPHIMURIUM, Strain/Indicator: TA100, Metabolic Activation: NONE, Method: PREINCUBATION
[6] = Test System: AMES SALMONELLA TYPHIMURIUM, Strain/Indicator: TA100, Metabolic Activation: RAT, LIVER, S-9, AROCLOR 1254 (10%), Method: PREINCUBATION
[7] = Test System: AMES SALMONELLA TYPHIMURIUM, Strain/Indicator: TA1535, Metabolic Activation: HAMSTER, LIVER, S-9, AROCLOR 1254 (10%), Method: PREINCUBATION
[8] = Test System: AMES SALMONELLA TYPHIMURIUM, Strain/Indicator: TA1535, Metabolic Activation: NONE, Method: PREINCUBATION
[9] = Test System: AMES SALMONELLA TYPHIMURIUM, Strain/Indicator: TA1535, Metabolic Activation: RAT, LIVER, S-9, AROCLOR 1254 (10%), Method: PREINCUBATION
[10] = Test System: AMES SALMONELLA TYPHIMURIUM, Strain/Indicator: TA1537, Metabolic Activation: HAMSTER, LIVER, S-9, AROCLOR 1254 (10%), Method: PREINCUBATION
[11] = Test System: AMES SALMONELLA TYPHIMURIUM, Strain/Indicator: TA1537, Metabolic Activation: NONE, Method: PREINCUBATION
[12] = Test System: AMES SALMONELLA TYPHIMURIUM, Strain/Indicator: TA1537, Metabolic Activation: RAT, LIVER, S-9, AROCLOR 1254 (10%), Method: PREINCUBATION

Measured: mutagenic call

c1ccc2c(c1)Nc1ccccc1S2
inactive: [1] inactive; negative | [2] inactive; negative | Test System: AMES SALMONELLA TYPHIMURIUM, Strain/Indicator: TA98, Metabolic Activation: NONE, Method: SPOT TEST inactive; negative | [3] inactive; negative | [4] inactive; negative | [5] inactive; negative | [6] inactive; negative | [7] inactive; negative | [8] inactive; negative | [9] inactive; negative | [10] inactive; negative | [11] inactive; negative | [12] inactive; negative

O=C(O)C[C@H](O)C[C@H](O)/C=C/c1c(C2CC2)nc2ccccc2c1-c1ccc(F)cc1
inactive: [2] inactive; negative | Test System: AMES SALMONELLA TYPHIMURIUM, Strain/Indicator: TA98, Metabolic Activation: S-9, Method: PREINCUBATION inactive; negative | [5] inactive; negative | Test System: AMES SALMONELLA TYPHIMURIUM, Strain/Indicator: TA100, Metabolic Activation: S-9, Method: PREINCUBATION inactive; negative | [8] inactive; negative | Test System: AMES SALMONELLA TYPHIMURIUM, Strain/Indicator: TA1535, Metabolic Activation: S-9, Method: PREINCUBATION inactive; negative | [11] inactive; negative | Test System: AMES SALMONELLA TYPHIMURIUM, Strain/Indicator: TA1537, Metabolic Activation: S-9, Method: PREINCUBATION inactive; negative | Test System: ESCHERICHIA COLI, Strain/Indicator: WP2 UVR A, Metabolic Activation: NONE, Method: PREINCUBATION inactive; negative | Test System: ESCHERICHIA COLI, Strain/Indicator: WP2 UVR A, Metabolic Activation: S-9, Method: PREINCUBATION inactive; negative | Test System: UDS RAT HEPATOCYTES IN VIVO, Strain/Indicator: CRJ:CD(SD)/THYMIDINE INCORPORATION, Metabolic Activation: NONE, Method: AUTORADIOGRAPHY inactive; negative

Cc1ccc(C(C)(C)C)cc1
inactive: [1] inactive; negative | [2] inactive; negative | [3] inactive; negative | [4] inactive; negative | [5] inactive; negative | [6] inactive; negative | [7] inactive; negative | [8] inactive; negative | [9] inactive; negative | [10] inactive; negative | [11] inactive; negative | [12] inactive; negative
